Drawing on patent US8501749B2, “Azaquinazolinediones chymase inhibitors” (Boehringer Ingelheim International GmbH, priority 2009, dated 2013), this text covers IC50 for 1 molecule.

Each structure is given as a SMILES string.

This test concerns the target Chymase (Homo sapiens (Human), UniProt P23946). To be noted: read-out: Chymase IC50; fluorogenic rhodamine 110 peptide substrate, 1 hour at 28° C., 1% DMSO.

Chain of Chymase (P23946 22-247): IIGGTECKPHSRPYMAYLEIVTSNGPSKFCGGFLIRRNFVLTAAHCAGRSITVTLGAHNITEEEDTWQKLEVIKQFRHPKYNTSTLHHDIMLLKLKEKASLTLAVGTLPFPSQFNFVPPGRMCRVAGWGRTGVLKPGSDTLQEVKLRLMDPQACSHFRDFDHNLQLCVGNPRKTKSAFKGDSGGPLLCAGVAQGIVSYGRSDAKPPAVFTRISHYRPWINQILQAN

Take `CC[C@H](CC(=O)O)n1c(=O)c2ncccc2n(Cc2cn(C)c3cc(C)cc(C)c23)c1=O` [(R)-3-[2,4-Dioxo-1-(1,4,6-trimethyl-1H-indol-3-ylmethyl)-1,4-dihydro-2H-pyrido[3,2-d]pyrimidin-3-yl]-pentanoic acid]: the IC50 is 0.4 nM.

For orientation: IC50 means the midpoint of a concentration-inhibition curve.
